From US20130165368A1, “ANTIMICROBIAL COMPOUNDS” (priority 2010, published 2013)
≈ marks a conversion by molar mass, not a printed value. Read-outs that look alike come from different tables or passages of the source. One block for each molecule: values may come before it.

Key:
Assay type in all cases: cell-based
Enterococcus faecium = assay: MIC agar dilution, micro-organism 16 (7171); conditions: Enterococcus faecium 7171, read-out: MIC
How it was run: (§1)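 Twofold dilutions of compound emulsions in water were set in Isosensitest agar with Brazier's CCEY medium, egg yolk and lysed horse blood. Spots of 1 µL from 0.5 McFarland suspensions diluted 1/15 were incubated aerobically at 37 °C and read at 22 and 48 h. MIC (mmol/L) was the lowest concentration giving <10 colonies.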

Listeria monocytogenes = assay: MIC agar dilution, micro-organism 15 (11994); conditions: Listeria monocytogenes 11994, read-out: MIC
How it was run: as §1

[1] = system: Enterococcus faecium (VRE) 12185 Clin waste; assay: MIC agar dilution, VRE strain 24
Protocol: (§2) Molar equivalent concentrations were used to allow comparison between compounds of differing molecular mass. Due to weighing difficulties, any compound in solid form was melted in a water bath prior to dilution. To make ten-times strength concentrations, which takes into account agar dilution, 0.0352 mmol of each compound was weighed into plastic universal bottles and 4 mL of sterile distilled water (SDW) was added. To produce a homogenous emulsion the universals were vortexed; once achieved the emulsions were serial diluted by adding 2 mL to 2 mL of SDW.
(§3) For every 100 mL of Isosensitest agar (IST) (CM0471; Oxoid, Basingstoke, England), 3.1 g of the IST powder was added to 100 mL SDW (as per manufacturer's instructions) and sterilised for 15 minutes at 121° C. Once sterilised, the molten agar was cooled to 50° C. in a water-bath. Subsequently 4.8 g of CCEY powder (BC2160; Bioconnections, Wetherby, England), also known as Brazier's medium, was added to 100 mL SDW for every 100 mL of agar needed. This was then sterilised for 15 minutes at 121° C. Once sterilised the molten agar was cooled to 50° C. in a water-bath and 4 mL of egg-yolk emulsion (S2073; TCS Biosciences Ltd, Buckingham, United Kingdom) and 1 mL of lysed defibrinated horse blood (HB035; TCS Biosciences Ltd, Buckingham, United Kingdom) were also added for every 100 mL needed. Horse blood lysis is achieved by dilution to half concentration with SDW; when fully lysed the mixture will turn dark red in colour.
(§4) 18 mL agar was added to each universal and then poured into sterile Petri dishes. This step creates a 1/10 dilution resulting in agar plates of the required strength. Control plates for each set of strains were created by adding 18 mL of agar to 2 mL of SDW.
(§5) Suspensions of each bacterial species were prepared with a density equal to that of a 0.5 McFarland standard using a densitometer. All suspensions were made using sterile distilled water and fresh 18-20 hour cultures. As a 0.5 McFarland standard contains 1.5×10^8 CFU/mL and the multipoint inoculators applies 1 μL spots of liquid, each bacterial suspension was diluted 1/15 (20 μL suspension to 280 μL sterile distilled water).
(§6) Bacterial suspensions were prepared from fresh 18-24 hour cultures as previously described. 1 μL of each strain was inoculated onto all 100 agar plates containing a different chemical concentration and the 2 control plates. This was done using a multipoint inoculator which inoculates 20 strains per plate. All plates were incubated for 22 hours at 37° C. in aerobic conditions.
(§7) Each plate was examined for bacterial growth after 22 and 48 hours, with each being incubated in between examinations. A positive result was recorded as growth of ≧10 colonies. A negative result was recorded as growth of <10 colonies as this is equivalent to 99.9% inhibition. The lowest concentration of chemical that inhibited growth was recorded as the MIC. The results are recorded in Table IV below, where the numbers are quoted in mmol/L.
(§8) Given the positive performance of the ethoxylates of lauryl alcohol in reducing the MIC for a number of the micro-organisms tested, further MIC testing of Laureth-1 [C12E1] through to Laureth-8 [C12E8] was conducted on each of the following: • 10 strains of vancomycin-resistant enterococci (VRE)—listed in Table V below; and • 20 strains of methicillin-resistant Staphylococcus aureus (MRSA)—listed in Table VI.
(§9) The alkanol, alkanol derivatives, agar plates, and inocula were all prepared in the same way as described above.
(§10) The plates were examined in the same manner as described above and the results are recorded in Table VII below, where the numbers are quoted in mmol/L.

Enterococcus faecalis = assay: MIC agar dilution, micro-organism 17 (775); conditions: Enterococcus faecalis 775, read-out: MIC
How it was run: as §1

[2] = system: Staphylococcus epidermidis; assay: MIC agar dilution, micro-organism 14 (11047); conditions: Staphylococcus epidermidis 11047, read-out: MIC
How it was run: as §1

[3] = system: Enterococcus faecium (VRE) MB310; assay: MIC agar dilution, VRE strain 29
Protocol: as §2, §3, §4, §5, §6, §7, §8, §9, §10

[4] = system: Enterococcus faecalis (VRE) MB 1969; assay: MIC agar dilution, VRE strain 27
Protocol: as §2, §3, §4, §5, §6, §7, §8, §9, §10

Providencia rettgeri = assay: MIC agar dilution, micro-organism 3 (7475); conditions: Providencia rettgeri 7475, read-out: MIC
How it was run: as §1

[5] = system: Gram negative bacteria, Gram positive bacteria and pathogenic yeasts; assay: MIC agar dilution, summary statements over the micro-organisms tested (Tables I, IX); conditions: read-out: MIC
Excerpt: For a better understanding, the present invention will now be more particularly described, by way of non-limiting example only, as follows. The micro-organisms shown in Table I overleaf were acquired from the National Collection of Type Cultures (NCTC), Colindale, United Kingdom; the American Type Culture Collection (ATCC), Manassas, United States and the National Collection of Pathogenic Fungi (NCPF), Colindale, United Kingdom. They include Gram negative bacteria, Gram positive bacteria and pathogenic yeasts.
Throughout the period of testing the microbial strains were subcultured and incubated for 18-20 hours at 37° C. on a weekly basis. Horse blood agar plates were used to sustain the micro-organisms both prior to and throughout testing. The alkoxylated alkanols listed in Table II below were obtained (these are obtainable from Sigma-Aldrich Company Ltd, Dorset, England), each having a GC purity of at least 97%.
as §2
Myristyl alcohol and lauryl alcohol were re-weighed and dissolved in 25 μL of the polar solvent 1-methyl-2-pyrrolidone (M6762; Sigma-Aldrich) in sterile glass universals due to an inability to achieve an even suspension. To maintain an even emulsion in the presence of SDW 37.5 μL of the non-ionic detergent Tween 20 (P1379, Sigma-Aldrich) was also added. 3.9375 mL of SDW was added to these, to create a 4 mL volume; they were vortexed and diluted as before.
as §3, §4, §5
as §6, with “conditions. […]” for “conditions.”

[6] = system: Enterococcus casseliflavus (VRE) Clin waste; assay: MIC agar dilution, VRE strain 23
Protocol: as §2, §3, §4, §5, §6, §7, §8, §9, §10

Structure (SMILES): CCCCCCCCCCCCOCCOCCOCCOCCO [L4, Tetraethylene Glycol Monododecyl Ether]
MIC (Enterococcus faecium; 22 hrs): 220 µM (≈ 79.8 µg/mL) | MIC (Enterococcus faecium; 48 hrs): 220 µM (≈ 79.8 µg/mL) | MIC (Listeria monocytogenes; 22 hrs): 110 µM (≈ 39.9 µg/mL) | MIC (Listeria monocytogenes; 48 hrs): 220 µM (≈ 79.8 µg/mL) | MIC ([1]; 22 hrs): 220 µM (≈ 79.8 µg/mL) | MIC ([1]; 48 hrs): 440 µM (≈ 160 µg/mL) | MIC (Enterococcus faecalis; 22 hrs): 110 µM (≈ 39.9 µg/mL) | MIC (Enterococcus faecalis; 48 hrs): 110 µM (≈ 39.9 µg/mL) | MIC ([2]; 22 hrs): 110 µM (≈ 39.9 µg/mL) | MIC ([2]; 48 hrs): 110 µM (≈ 39.9 µg/mL) | MIC ([3]; 22 hrs): 110 µM (≈ 39.9 µg/mL) | MIC ([3]; 48 hrs): 110 µM (≈ 39.9 µg/mL) | MIC ([4]; 22 hrs): 220 µM (≈ 79.8 µg/mL) | MIC ([4]; 48 hrs): 220 µM (≈ 79.8 µg/mL) | MIC (Providencia rettgeri; 22 hrs): > 880 µM | MIC (Providencia rettgeri; 48 hrs): > 880 µM | MIC [5]: ~110 µM (≈ 39.9 µg/mL) | MIC ([6]; 22 hrs): 110 µM (≈ 39.9 µg/mL) | MIC ([6]; 48 hrs): 110 µM (≈ 39.9 µg/mL)

Structure (SMILES): CCCCCCCCCCCCOCCOCCOCCOCCOCCO [L5, Pentaethylene Glycol Monododecyl Ether]
MIC (Enterococcus faecium; 22 hrs): 220 µM (≈ 89.5 µg/mL) | MIC (Enterococcus faecium; 48 hrs): 220 µM (≈ 89.5 µg/mL) | MIC (Listeria monocytogenes; 22 hrs): 110 µM (≈ 44.7 µg/mL) | MIC (Listeria monocytogenes; 48 hrs): 220 µM (≈ 89.5 µg/mL) | MIC ([1]; 22 hrs): 220 µM (≈ 89.5 µg/mL) | MIC ([1]; 48 hrs): 220 µM (≈ 89.5 µg/mL) | MIC (Enterococcus faecalis; 22 hrs): 110 µM (≈ 44.7 µg/mL) | MIC (Enterococcus faecalis; 48 hrs): 110 µM (≈ 44.7 µg/mL) | MIC ([2]; 22 hrs): 110 µM (≈ 44.7 µg/mL) | MIC ([2]; 48 hrs): 110 µM (≈ 44.7 µg/mL) | MIC ([3]; 22 hrs): 110 µM (≈ 44.7 µg/mL) | MIC ([3]; 48 hrs): 110 µM (≈ 44.7 µg/mL) | MIC ([4]; 22 hrs): 220 µM (≈ 89.5 µg/mL) | MIC ([4]; 48 hrs): 220 µM (≈ 89.5 µg/mL) | MIC (Providencia rettgeri; 22 hrs): > 880 µM | MIC (Providencia rettgeri; 48 hrs): > 880 µM | MIC [5]: ~110 µM (≈ 44.7 µg/mL) | MIC ([6]; 22 hrs): 110 µM (≈ 44.7 µg/mL) | MIC ([6]; 48 hrs): 110 µM (≈ 44.7 µg/mL)

Structure (SMILES): CCCCCCCCCCCCOCCOCCOCCOCCOCCOCCO [L6, Hexaethylene Glycol Monododecyl Ether]
MIC (Enterococcus faecium; 22 hrs): 440 µM (≈ 198 µg/mL) | MIC (Enterococcus faecium; 48 hrs): 220 µM (≈ 99.1 µg/mL) | MIC (Listeria monocytogenes; 22 hrs): 110 µM (≈ 49.6 µg/mL) | MIC (Listeria monocytogenes; 48 hrs): 110 µM (≈ 49.6 µg/mL) | MIC ([1]; 22 hrs): 880 µM (≈ 397 µg/mL) | MIC ([1]; 48 hrs): 880 µM (≈ 397 µg/mL) | MIC (Enterococcus faecalis; 22 hrs): 110 µM (≈ 49.6 µg/mL) | MIC (Enterococcus faecalis; 48 hrs): 110 µM (≈ 49.6 µg/mL) | MIC ([2]; 22 hrs): 110 µM (≈ 49.6 µg/mL) | MIC ([2]; 48 hrs): 110 µM (≈ 49.6 µg/mL) | MIC ([3]; 22 hrs): 220 µM (≈ 99.1 µg/mL) | MIC ([3]; 48 hrs): 220 µM (≈ 99.1 µg/mL) | MIC ([4]; 22 hrs): > 880 µM | MIC ([4]; 48 hrs): > 880 µM | MIC (Providencia rettgeri; 22 hrs): > 880 µM | MIC (Providencia rettgeri; 48 hrs): > 880 µM | MIC [5]: ~110 µM (≈ 49.6 µg/mL) | MIC ([6]; 22 hrs): 220 µM (≈ 99.1 µg/mL) | MIC ([6]; 48 hrs): 220 µM (≈ 99.1 µg/mL)

Structure (SMILES): CCCCCCCCCCCCOCCOCCOCCOCCOCCOCCOCCO [L7, Heptaethylene Glycol Monododecyl Ether]
MIC (Enterococcus faecium; 22 hrs): > 880 µM | MIC (Enterococcus faecium; 48 hrs): > 880 µM | MIC (Listeria monocytogenes; 22 hrs): 220 µM (≈ 109 µg/mL) | MIC (Listeria monocytogenes; 48 hrs): 220 µM (≈ 109 µg/mL) | MIC ([1]; 22 hrs): > 880 µM | MIC ([1]; 48 hrs): > 880 µM | MIC (Enterococcus faecalis; 22 hrs): 110 µM (≈ 54.4 µg/mL) | MIC (Enterococcus faecalis; 48 hrs): 110 µM (≈ 54.4 µg/mL) | MIC ([2]; 22 hrs): 110 µM (≈ 54.4 µg/mL) | MIC ([2]; 48 hrs): 110 µM (≈ 54.4 µg/mL) | MIC ([3]; 22 hrs): 110 µM (≈ 54.4 µg/mL) | MIC ([3]; 48 hrs): 110 µM (≈ 54.4 µg/mL) | MIC ([4]; 22 hrs): > 880 µM | MIC ([4]; 48 hrs): > 880 µM | MIC (Providencia rettgeri; 22 hrs): > 880 µM | MIC (Providencia rettgeri; 48 hrs): > 880 µM | MIC ([6]; 22 hrs): 220 µM (≈ 109 µg/mL) | MIC ([6]; 48 hrs): 220 µM (≈ 109 µg/mL)

MIC (Enterococcus faecium; 22 hrs): > 880 µM | MIC (Enterococcus faecium; 48 hrs): > 880 µM | MIC (Listeria monocytogenes; 22 hrs): 440 µM (≈ 237 µg/mL) | MIC (Listeria monocytogenes; 48 hrs): > 880 µM | MIC ([1]; 22 hrs): > 880 µM | MIC ([1]; 48 hrs): > 880 µM | MIC (Enterococcus faecalis; 22 hrs): 110 µM (≈ 59.3 µg/mL) | MIC (Enterococcus faecalis; 48 hrs): 110 µM (≈ 59.3 µg/mL) | MIC ([2]; 22 hrs): 110 µM (≈ 59.3 µg/mL) | MIC ([2]; 48 hrs): 110 µM (≈ 59.3 µg/mL) | MIC ([3]; 22 hrs): > 880 µM | MIC ([3]; 48 hrs): > 880 µM | MIC ([4]; 22 hrs): > 880 µM | MIC ([4]; 48 hrs): > 880 µM | MIC (Providencia rettgeri; 22 hrs): > 880 µM | MIC (Providencia rettgeri; 48 hrs): > 880 µM | MIC ([6]; 22 hrs): 440 µM (≈ 237 µg/mL) | MIC ([6]; 48 hrs): 440 µM (≈ 237 µg/mL)
Structure (SMILES): CCCCCCCCCCCCOCCOCCOCCOCCOCCOCCOCCOCCO [L8, Octaethylene Glycol Monododecyl Ether]
